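Exposure lasted 48 hours, with cells grown in 96-well plates and compounds tested at five concentrations. At the TGI there is no net growth.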
Legend:
Assay in all cases: inhibition of tumour cell growth, NCI panel, 48 h
[1] = tested on: SW-620 colon
[2] = tested on: A498 renal
[3] = tested on: 786-0 renal
[4] = tested on: HCT-15 colon
[5] = tested on: SR leukemia
[6] = tested on: OVCAR-8 ovarian
[7] = tested on: BT-549 breast
[8] = tested on: UACC-257 melanoma
[9] = tested on: HCT-116 colon
[10] = tested on: U251 CNS
[11] = tested on: A549 NSCLC
[12] = tested on: OVCAR-5 ovarian
[13] = tested on: K-562 leukemia
[14] = tested on: LOX IMVI melanoma
[15] = tested on: UO-31 renal
[16] = tested on: HOP-92 NSCLC
[17] = tested on: MDA-N
[18] = tested on: IGROV1 ovarian
[19] = tested on: RXF 393 renal
[20] = tested on: CAKI-1 renal
[21] = tested on: KM12 colon
[22] = tested on: MDA-MB-435
[23] = tested on: ACHN renal
[24] = tested on: SF-295 CNS
[25] = tested on: MALME-3M melanoma
[26] = tested on: NCI-H460 lung
[27] = tested on: TK-10 renal
[28] = tested on: NCI/ADR-RES ovarian
[29] = tested on: PC-3 prostate
[30] = tested on: M14 melanoma
[31] = tested on: MDA-MB-231 breast
[32] = tested on: RPMI-8226 leukemia
[33] = tested on: MOLT-4 leukemia
[34] = tested on: OVCAR-3 ovarian
[35] = tested on: SF-268 CNS
[36] = tested on: HS 578T breast
[37] = tested on: SK-MEL-5 melanoma
[38] = tested on: UACC-62 melanoma
[39] = tested on: HCC-2998 colon
[40] = tested on: SN12C renal
[41] = tested on: NCI-H23 lung
[42] = tested on: HT29 colon
[43] = tested on: OVCAR-4 ovarian
[44] = tested on: NCI-H226 lung
[45] = tested on: SK-MEL-2 melanoma
[46] = tested on: HL-60(TB) leukemia
[47] = tested on: SK-MEL-28 melanoma
[48] = tested on: T-47D breast
[49] = tested on: HOP-62 NSCLC
[50] = tested on: SNB-19 CNS
[51] = tested on: EKVX NSCLC
[52] = tested on: NCI-H522 lung
[53] = tested on: SF-539 CNS
[54] = tested on: COLO 205 colon
[55] = tested on: CCRF-CEM leukemia
[56] = tested on: MCF7 breast
[57] = tested on: DU-145 prostate
[58] = tested on: SK-OV-3 ovarian
[59] = tested on: SNB-75 CNS

Question: For `COc1cc(C)cc(OC)c1/C=C/C(=O)O`, which TGI [1] is on record?
Answer: > 100 µM

Question: What about the TGI [2] of the same molecule?
Answer: > 100 µM

Question: And the TGI [3]?
Answer: > 100 µM

Question: And the TGI [4]?
Answer: > 100 µM

Question: What about the TGI [5] of the same molecule?
Answer: > 100 µM

Question: What about the TGI [6] of the same molecule?
Answer: > 100 µM

Question: What about the TGI [7] of the same molecule?
Answer: > 100 µM

Question: And the TGI [8]?
Answer: > 100 µM

Question: And the TGI [9]?
Answer: > 100 µM

Question: What about the TGI [10] of the same molecule?
Answer: > 100 µM

Question: What about the TGI [11] of the same molecule?
Answer: > 100 µM

Question: And the TGI [12]?
Answer: > 100 µM

Question: And the TGI [13]?
Answer: > 100 µM

Question: And the TGI [14]?
Answer: > 100 µM

Question: And the TGI [15]?
Answer: > 100 µM

Question: And the TGI [16]?
Answer: > 100 µM

Question: What about the TGI [17] of the same molecule?
Answer: > 100 µM

Question: What about the TGI [18] of the same molecule?
Answer: > 100 µM

Question: What about the TGI [19] of the same molecule?
Answer: > 100 µM

Question: What about the TGI [20] of the same molecule?
Answer: > 100 µM

Question: And the TGI [21]?
Answer: > 100 µM

Question: What about the TGI [22] of the same molecule?
Answer: > 100 µM

Question: What about the TGI [23] of the same molecule?
Answer: > 100 µM

Question: And the TGI [24]?
Answer: > 100 µM

Question: And the TGI [25]?
Answer: > 100 µM

Question: And the TGI [26]?
Answer: > 100 µM

Question: What about the TGI [27] of the same molecule?
Answer: > 100 µM

Question: What about the TGI [28] of the same molecule?
Answer: > 100 µM

Question: And the TGI [29]?
Answer: > 100 µM

Question: And the TGI [30]?
Answer: > 100 µM

Question: What about the TGI [31] of the same molecule?
Answer: > 100 µM

Question: What about the TGI [32] of the same molecule?
Answer: > 100 µM

Question: And the TGI [33]?
Answer: > 100 µM

Question: And the TGI [34]?
Answer: 87.6 µM

Question: And the TGI [35]?
Answer: > 100 µM

Question: What about the TGI [36] of the same molecule?
Answer: > 100 µM

Question: And the TGI [37]?
Answer: > 100 µM

Question: And the TGI [38]?
Answer: > 100 µM

Question: And the TGI [39]?
Answer: > 100 µM

Question: And the TGI [40]?
Answer: > 100 µM

Question: What about the TGI [41] of the same molecule?
Answer: > 100 µM

Question: And the TGI [42]?
Answer: > 100 µM

Question: What about the TGI [43] of the same molecule?
Answer: > 100 µM

Question: And the TGI [44]?
Answer: > 100 µM

Question: What about the TGI [45] of the same molecule?
Answer: > 100 µM

Question: And the TGI [46]?
Answer: > 100 µM

Question: What about the TGI [47] of the same molecule?
Answer: > 100 µM

Question: What about the TGI [48] of the same molecule?
Answer: > 100 µM

Question: And the TGI [49]?
Answer: > 100 µM

Question: What about the TGI [50] of the same molecule?
Answer: > 100 µM

Question: And the TGI [51]?
Answer: > 100 µM

Question: And the TGI [52]?
Answer: > 100 µM

Question: For `CCCC1C(C#N)(C#N)C(C#N)=C(N)C1(C)C(C)=O` (centres undefined), which TGI [1] is on record?
Answer: > 100 µM

Question: And the TGI [2]?
Answer: > 100 µM

Question: What about the TGI [3] of the same molecule?
Answer: > 100 µM

Question: What about the TGI [4] of the same molecule?
Answer: > 100 µM

Question: What about the TGI [53] of the same molecule?
Answer: > 100 µM

Question: And the TGI [6]?
Answer: > 100 µM

Question: And the TGI [54]?
Answer: > 100 µM

Question: And the TGI [8]?
Answer: > 100 µM

Question: What about the TGI [9] of the same molecule?
Answer: > 100 µM

Question: And the TGI [10]?
Answer: > 100 µM

Question: What about the TGI [11] of the same molecule?
Answer: > 100 µM

Question: And the TGI [55]?
Answer: > 100 µM

Question: And the TGI [12]?
Answer: > 100 µM

Question: And the TGI [13]?
Answer: > 100 µM

Question: And the TGI [14]?
Answer: > 100 µM

Question: And the TGI [15]?
Answer: > 100 µM

Question: What about the TGI [16] of the same molecule?
Answer: > 100 µM

Question: And the TGI [17]?
Answer: > 100 µM

Question: And the TGI [18]?
Answer: > 100 µM

Question: What about the TGI [19] of the same molecule?
Answer: > 100 µM

Question: And the TGI [20]?
Answer: 21.6 µM

Question: And the TGI [21]?
Answer: > 100 µM

Question: What about the TGI [22] of the same molecule?
Answer: > 100 µM

Question: And the TGI [23]?
Answer: > 100 µM

Question: And the TGI [24]?
Answer: > 100 µM

Question: What about the TGI [25] of the same molecule?
Answer: > 100 µM

Question: And the TGI [27]?
Answer: > 100 µM

Question: What about the TGI [28] of the same molecule?
Answer: > 100 µM

Question: And the TGI [29]?
Answer: > 100 µM

Question: And the TGI [30]?
Answer: > 100 µM

Question: And the TGI [31]?
Answer: > 100 µM

Question: And the TGI [32]?
Answer: > 100 µM

Question: And the TGI [33]?
Answer: > 100 µM

Question: And the TGI [35]?
Answer: > 100 µM

Question: And the TGI [56]?
Answer: > 100 µM

Question: And the TGI [36]?
Answer: > 100 µM

Question: What about the TGI [57] of the same molecule?
Answer: > 100 µM

Question: And the TGI [37]?
Answer: > 100 µM

Question: And the TGI [38]?
Answer: > 100 µM

Question: What about the TGI [39] of the same molecule?
Answer: > 100 µM

Question: And the TGI [40]?
Answer: > 100 µM

Question: And the TGI [41]?
Answer: > 100 µM

Question: What about the TGI [42] of the same molecule?
Answer: > 100 µM

Question: And the TGI [58]?
Answer: > 100 µM

Question: And the TGI [44]?
Answer: > 100 µM

Question: And the TGI [45]?
Answer: > 100 µM

Question: What about the TGI [46] of the same molecule?
Answer: > 100 µM

Question: What about the TGI [48] of the same molecule?
Answer: > 100 µM

Question: What about the TGI [50] of the same molecule?
Answer: > 100 µM

Question: What about the TGI [59] of the same molecule?
Answer: 96.9 µM

Question: And the TGI [51]?
Answer: > 100 µM

Question: And the TGI [52]?
Answer: > 100 µM
